Series [1] relates to α-adrenergic receptor. The experiment in a line: isolated rat seminal vesicle assay, in vitro α-adrenergic receptor blocking effect against norepinephrine. Conditions: antihypertensive activity ratio (A) over α-adrenergic blocking activity ratio (B). The method, then: (§1) In Table 1, antihypertensive activity was determined by oral administration to spontaneous hypertensive rats, the in vitro α-adrenergic receptor blocking effect was determined according to the following test method.
(§2) Dungan et al, Int. […] Lietch et al, Brit.
(§3) Male Long Evans rats weighing approximately 300 g. were sacrificed by a sharp blow on the head. Seminal vesicles were removed and transferred to a shallow disk containing modified Tyrode's solution. The vesicles were emptied of their contents by squeezing them gently with a pair of forceps. Silk thread (4-0) was attached to both ends of the vesicle and it was suspended in a 20 ml. muscle chamber containing modified oxygenated Tyrode's solution (g./liter: NaCl 8, KCl 0.2, CaCl2 0.26, NaHCO3 1, Na2 HPO4 0.0575, glucose 0.5 and MgCl2 0.02). The bathing fluid was maintained at 37° C. with a thermostatically controlled isolated organ tissue bath. Contractions were recorded isometrically by means of a force displacement transducer and recordings were made with a Beckman RP Dynograph. Norepinephrine (NE) was added to the muscle chamber in volumes ranging from 0.1 to 0.4 ml. with a one ml. syringe attached to a 3 inch 20 gauge needle. NE and test compounds were dissolved in deionized water.
(§4) NE response curves were obtained alone and in the presence of test compounds. NE was allowed to remain in contact with the strip until a maximal contraction was obtained. The strip was then washed with the perfusion fluid for 15-30 seconds and the preparation was allowed to return to base line before a subsequent dose of NE was given. Increasing amounts of NE were injected into the bath in the same manner until a complete dose response was obtained.
(§5) The seminal vesicles used to obtain the control NE dose response were discarded and new preparations were placed in the tissue bath for evaluation of the test compound. The test compound was added directly to the perfursion fluid (10 nanograms/ml.) and the strips were allowed to remain in contact with the bathing media for at least 10 minutes before the NE dose response was determined.
(§6) ED50 values for NE were obtained by regression analysis as described by Finney, Probit. Analysis, 2d Ed., Cambridge (1964). A minimum of 4 strips and at least 4 doses were employed to calculate the regression lines. The ED50 value is defined as the concentration of NE which produces a contraction equal to 50% of the maximal contraction.

In series [2] the target is T1, α-adrenergic receptor (Rattus norvegicus, UniProt P43140).
T1 construct: Seminal vesicles were removed and transferred to a shallow disk containing modified Tyrode's solution; from tissue; host or cells: isolated seminal vesicle of male Long Evans rats
T1 sequence (P43140 1-466): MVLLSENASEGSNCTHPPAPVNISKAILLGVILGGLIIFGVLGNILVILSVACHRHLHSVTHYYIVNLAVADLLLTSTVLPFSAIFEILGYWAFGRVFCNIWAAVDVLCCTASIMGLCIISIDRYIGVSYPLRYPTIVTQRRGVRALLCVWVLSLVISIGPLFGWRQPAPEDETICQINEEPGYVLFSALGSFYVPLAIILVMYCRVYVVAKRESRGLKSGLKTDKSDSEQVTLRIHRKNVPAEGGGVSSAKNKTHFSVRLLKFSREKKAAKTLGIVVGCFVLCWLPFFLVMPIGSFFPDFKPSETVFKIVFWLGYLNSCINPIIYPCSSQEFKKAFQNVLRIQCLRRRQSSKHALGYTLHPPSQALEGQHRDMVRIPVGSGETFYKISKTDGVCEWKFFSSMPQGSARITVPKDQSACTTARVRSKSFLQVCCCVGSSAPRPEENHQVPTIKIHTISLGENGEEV
Described as above. Conditions: relative to prazosin; isolated rat seminal vesicle, test compound 10 nanograms/ml, norepinephrine agonist. The method, then: as §1, §2, §3, §4, §5, §6

The test system of series [3] is spontaneous hypertensive rats. Briefly: antihypertensive activity by oral administration to spontaneous hypertensive rats. Type of series: in vivo, rat. To be noted: for ED50 / Antihypertensive Activity Ratio (A): oral, spontaneous hypertensive rat; for ED50: read-out: Antihypertensive ED50 mm Hg; for Antihypertensive Activity Ratio (A): relative to prazosin. How it is done: as §1

Another series has as its system humans. To be noted: cited from earlier work.
The subject of a further series is patients. To be noted: human, in vivo; cited from earlier work.

Structures can show the parent of a compound that is named as a salt.

As for `CCOC(=O)Nc1snnc1C(=O)N1CCN(c2nc(N)c3cc(OC)c(OC)cc3n2)CC1` [Example 1, 4-Amino-6,7-dimethoxy-2-[4-(5-ethoxycarbonylamino-1,2,3-thiadiazole-4-carbonyl)-piperazin-1-vl]-quinazoline Hydrochloride], the “Ratio A/B” value in the series with α-adrenergic receptor [1] was 5.0. In addition, the “α-Adr. Bl. Activity Ratio (B)” value on α-adrenergic receptor [2] is 0.15. For the same compound, the “reduction in systolic blood pressure” value in series [3] (24 hours after oral dose of 10 mg./kg., spontaneous hypertensive rats) turned out to be 22%. In addition, in series [3], the ED50 was determined as 2.8 mg/kg and the “Antihypertensive Activity Ratio (A)” value amounted to 0.75.
As for `COc1cc2nc(N3CCN(C(=O)c4csnn4)CC3)nc(N)c2cc1OC.Cl` [Example 2, 4Amino-6,7-dimethoxy-2-[4-(1,2,3-thiadiazole-4-carbonyl)piperazin-1-yl]quinazoline Hydrochloride], the “Ratio A/B” value with α-adrenergic receptor [1] is listed as 2.0. In addition, at α-adrenergic receptor [2], the “α-Adr. Bl. Activity Ratio (B)” value was 0.27. Moreover, in series [3], the ED50 is 4 mg/kg and the “Antihypertensive Activity Ratio (A)” value is recorded as 0.53.
Consider `COc1cc2nc(N3CCN(C(=O)c4cnns4)CC3)nc(N)c2cc1OC.Cl` [Example 3, 4-Amino-6,7-dimethoxy-2-[4-(1,2,3-thiadiazole-5-carbonyl)piperazin-1-yl]quinazoline Hydrochloride], for which the “Ratio A/B” value in the series with α-adrenergic receptor [1] was 2.3. For the same compound, the “α-Adr. Bl. Activity Ratio (B)” value at α-adrenergic receptor [2] is given as 0.23. In series [3], the ED50 turned out to be 4 mg/kg and the “Antihypertensive Activity Ratio (A)” value was 0.53.
For the compound `COc1cc2c(N)nc(N3CCN(C(=O)OCC(C)(C)O)CC3)nc2c(OC)c1OC` [Trimazosin], the “antihypertensive strength compared to prazosin (in words)” value in the series with humans (clinical daily dose approximately 150 to 500 mg. for trimazosin, 1.5 to 15 mg. for prazosin) is recorded as “much weaker drug than prazosin”. Also, the “antihypertensive activity in humans (in words)” value in the series with humans (humans) is recorded as “active in humans as an antihypertensive agent”.
`COc1cc2nc(N3CCN(C(=O)c4ccco4)CC3)nc(N)c2cc1OC` [prazosin, 2-[4-(2-furoyl)-piperazin-1-yl]-4-amino-6,7-dimethoxyquinazoline, reference compound]: in the series on patients, the “adverse reactions, recent reports (in words)” value was “severe adverse reactions of postural hypotension in some patients”. The ED50 in series [3] worked out at 2.1 mg/kg.

Broadly, the ED50 is the dose that gives a 50% effect, or the effect in half of the subjects.

(Values after patent publication US4171363A, “1,2,3-Thiadiazole process” (priority 1978, dated 1979).)
